ChEMBL document CHEMBL4619812, “Discovery of Potent and Orally Available Bicyclo[1.1.1]pentane-Derived Indoleamine-2,3-dioxygenase 1 (IDO1) Inhibitors” (ACS Med Chem Lett, 2020)

How the values were obtained:
[1] = Unbound intrinsic clearance in human hepatocytes; type: ADME, cell-based, Hepatocyte
[2] = Unbound intrinsic clearance in rat hepatocytes; type: ADME, cell-based, Hepatocyte
[3] = Unbound clearance in rat; type: ADME; conditions: in vivo
[4] = Clearance in rat; type: ADME; conditions: in vivo
[5] = Clearance in dog; type: ADME, Canis lupus familiaris; conditions: in vivo
[6] = target: Tryptophan 2,3-dioxygenase (Homo sapiens, UniProt P48775); assay: Inhibition of TDO in human SW48 cells using L-tryptophan as substrate incubated for 48 hrs by fluorescent microplate reader assay; type: cell-based
[7] = target: T1, Nuclear receptor subfamily 1 group I member 2 (Homo sapiens, UniProt O75469); assay: Activation of PXR (unknown origin)
T1 sequence (O75469 whole entry): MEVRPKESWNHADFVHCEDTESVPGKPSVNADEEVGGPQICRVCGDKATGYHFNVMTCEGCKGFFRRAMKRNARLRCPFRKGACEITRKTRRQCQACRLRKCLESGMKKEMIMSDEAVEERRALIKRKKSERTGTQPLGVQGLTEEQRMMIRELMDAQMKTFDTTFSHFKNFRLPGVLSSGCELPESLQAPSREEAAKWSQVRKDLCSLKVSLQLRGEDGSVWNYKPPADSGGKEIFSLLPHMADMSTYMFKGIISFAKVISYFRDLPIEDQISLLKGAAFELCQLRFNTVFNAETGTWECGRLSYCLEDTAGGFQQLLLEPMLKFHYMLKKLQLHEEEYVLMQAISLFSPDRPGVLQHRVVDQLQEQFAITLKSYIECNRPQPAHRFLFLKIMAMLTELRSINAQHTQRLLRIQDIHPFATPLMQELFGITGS

[8] = Apparent permeability in MDCK2 cells; type: ADME, cell-based, Canis lupus familiaris, MDCK-II; conditions: dog, MDCK
[9] = Unbound intrinsic clearance in dog hepatocytes; type: ADME, cell-based, Canis lupus familiaris, Hepatocyte
[10] = Elimination half life in dog; type: ADME, Canis lupus familiaris; conditions: in vivo, read-out: beta t1/2 (converted)
CYP450 = CYP450 (Homo sapiens, UniProt P04798+P05177+P05181+P08684+P10632+P10635+P11509+P11712+P13584+P20813+P20815+P20853+P24462+P24903+P33260+P33261+P51589+P78329+P98187+Q02928+Q08477+Q16678+Q16696+Q5TCH4+Q6VVX0+Q7Z449+Q8TAV3+Q96SQ9+Q9HB55); assay: Inhibition of CYP450 (unknown origin); type: ADME, protein assay
[11] = Elimination half life in rat; type: ADME; conditions: in vivo, read-out: beta t1/2 (converted)
[12] = target: MDR1 (ABCB1, P-glycoprotein) (Homo sapiens, UniProt P08183); assay: Substrate activity at human MDR1 expressed in pig LLC-PK1 cells assessed as efflux ratio of permeability across basolateral to apical over apical to basolateral membrane at 1 mM after 3 hrs by LC/MS/MS analysis; design: dose or concentration left out as unconfirmed
[13] = Oral bioavailability in rat; type: ADME, organism-based; conditions: in vivo
[14] = target: Indoleamine 2,3-dioxygenase 1 (Homo sapiens) (UniProt P14902); conditions: Blood
Description: Inhibition of IDO1 in human whole blood stimulated with IFNgamma/LPS using L-tryptophan/kynurenine as substrate incubated for 15 mins prior to IFNgamma/LPS stimulation and further incubated for 18 hrs followed by isotope labeled L-tryptophan/kynurenine addition on day 2 by LC/MS-MS analysis

[15] = Unbound clearance in dog; type: ADME, Canis lupus familiaris; conditions: in vivo
[16] = Oral bioavailability in dog; type: ADME, organism-based, Canis lupus familiaris; conditions: in vivo
CYP3A4 = CYP3A4 (Homo sapiens, UniProt P08684); assay: Inhibition of CYP3A4 (unknown origin) assessed as TDI shift ratio
CYP3A4, sequence (P08684 whole entry): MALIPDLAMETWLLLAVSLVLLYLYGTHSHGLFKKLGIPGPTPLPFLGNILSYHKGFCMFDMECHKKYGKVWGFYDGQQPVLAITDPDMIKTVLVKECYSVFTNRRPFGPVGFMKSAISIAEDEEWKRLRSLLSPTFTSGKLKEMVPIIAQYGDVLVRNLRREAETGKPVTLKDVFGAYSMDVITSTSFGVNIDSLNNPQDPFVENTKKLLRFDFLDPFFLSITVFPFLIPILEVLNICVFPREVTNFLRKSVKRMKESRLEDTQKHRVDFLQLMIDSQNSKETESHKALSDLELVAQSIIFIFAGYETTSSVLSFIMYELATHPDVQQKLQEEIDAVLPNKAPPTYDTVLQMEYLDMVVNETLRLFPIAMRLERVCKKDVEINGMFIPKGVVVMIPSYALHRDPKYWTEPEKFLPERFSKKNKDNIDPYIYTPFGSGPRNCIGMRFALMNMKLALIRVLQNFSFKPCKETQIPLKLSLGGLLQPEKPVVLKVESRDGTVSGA

Tryptophan 2,3-dioxygenase, sequence (P48775 whole entry): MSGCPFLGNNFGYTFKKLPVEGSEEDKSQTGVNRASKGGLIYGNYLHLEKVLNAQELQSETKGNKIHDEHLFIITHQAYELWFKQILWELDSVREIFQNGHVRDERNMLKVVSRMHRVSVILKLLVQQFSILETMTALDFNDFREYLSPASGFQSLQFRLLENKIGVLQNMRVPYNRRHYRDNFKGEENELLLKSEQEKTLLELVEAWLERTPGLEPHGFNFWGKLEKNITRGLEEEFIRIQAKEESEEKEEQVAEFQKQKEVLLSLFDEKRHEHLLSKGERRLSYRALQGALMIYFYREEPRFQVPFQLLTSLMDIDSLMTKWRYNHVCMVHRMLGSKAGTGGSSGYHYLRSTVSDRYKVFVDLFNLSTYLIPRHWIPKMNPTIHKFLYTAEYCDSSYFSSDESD
MDR1 (ABCB1, P-glycoprotein), sequence (P08183 whole entry): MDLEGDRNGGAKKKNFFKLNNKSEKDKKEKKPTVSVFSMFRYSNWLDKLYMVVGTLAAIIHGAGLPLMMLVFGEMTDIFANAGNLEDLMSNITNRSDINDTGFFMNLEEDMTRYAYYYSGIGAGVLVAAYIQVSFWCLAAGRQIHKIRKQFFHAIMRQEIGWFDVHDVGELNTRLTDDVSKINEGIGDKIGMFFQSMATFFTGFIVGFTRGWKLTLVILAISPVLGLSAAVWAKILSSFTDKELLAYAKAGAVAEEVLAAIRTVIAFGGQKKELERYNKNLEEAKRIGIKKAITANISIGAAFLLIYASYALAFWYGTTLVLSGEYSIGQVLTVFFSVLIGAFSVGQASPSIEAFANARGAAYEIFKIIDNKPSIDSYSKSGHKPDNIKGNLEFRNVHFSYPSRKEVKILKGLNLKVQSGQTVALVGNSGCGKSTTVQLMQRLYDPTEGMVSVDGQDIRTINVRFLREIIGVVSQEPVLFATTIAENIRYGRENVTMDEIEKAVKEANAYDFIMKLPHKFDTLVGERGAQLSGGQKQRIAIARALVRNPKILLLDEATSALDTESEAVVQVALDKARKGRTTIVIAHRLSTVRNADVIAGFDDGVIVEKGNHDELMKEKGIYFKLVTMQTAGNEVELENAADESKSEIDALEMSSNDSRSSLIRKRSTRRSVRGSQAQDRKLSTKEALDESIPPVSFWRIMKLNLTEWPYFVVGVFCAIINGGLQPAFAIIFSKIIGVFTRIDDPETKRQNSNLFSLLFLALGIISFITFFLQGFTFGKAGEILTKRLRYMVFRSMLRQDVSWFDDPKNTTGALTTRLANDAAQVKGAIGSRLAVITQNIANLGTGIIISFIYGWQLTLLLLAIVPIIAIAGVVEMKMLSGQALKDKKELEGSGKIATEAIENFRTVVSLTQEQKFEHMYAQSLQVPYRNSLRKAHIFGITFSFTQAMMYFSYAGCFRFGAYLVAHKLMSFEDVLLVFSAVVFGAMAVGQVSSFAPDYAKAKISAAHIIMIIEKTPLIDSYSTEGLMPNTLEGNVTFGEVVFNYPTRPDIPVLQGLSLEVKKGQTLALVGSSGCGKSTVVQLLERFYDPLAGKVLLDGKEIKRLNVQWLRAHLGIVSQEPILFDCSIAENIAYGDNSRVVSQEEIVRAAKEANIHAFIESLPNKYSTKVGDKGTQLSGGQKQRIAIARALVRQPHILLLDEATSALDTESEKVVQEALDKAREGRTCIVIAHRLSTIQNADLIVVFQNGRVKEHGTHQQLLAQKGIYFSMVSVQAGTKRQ
Indoleamine 2,3-dioxygenase 1 (Homo sapiens), sequence (P14902 whole entry, looked up): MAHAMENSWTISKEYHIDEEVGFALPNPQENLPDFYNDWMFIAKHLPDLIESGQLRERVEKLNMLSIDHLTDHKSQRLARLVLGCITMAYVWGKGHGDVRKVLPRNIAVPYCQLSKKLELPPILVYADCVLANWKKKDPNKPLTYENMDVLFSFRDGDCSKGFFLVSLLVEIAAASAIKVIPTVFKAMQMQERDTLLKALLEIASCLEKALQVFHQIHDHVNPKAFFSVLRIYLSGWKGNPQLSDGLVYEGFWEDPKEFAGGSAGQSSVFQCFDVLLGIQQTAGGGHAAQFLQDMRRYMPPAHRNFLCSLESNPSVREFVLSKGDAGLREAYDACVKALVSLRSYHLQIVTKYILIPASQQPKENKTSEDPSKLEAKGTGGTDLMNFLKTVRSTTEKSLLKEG

Row | Structure (SMILES) | CL free [1] | CL free [2] | other results
1 | C[C@H](C(=O)Nc1ccc(F)cc1)C12CC(NC(=O)OC3CCCC3)(C1)C2 | 2357 mL/min/kg | 4457 mL/min/kg | –
2 | O=C(Nc1ccc(C2(C(=O)Nc3ccc(F)cc3)CCC2)cc1)c1cccc(Cl)c1 | – | 1935 mL/min/kg | CL free [3]: 4371 mL/min/kg
3 | C[C@H](C(=O)Nc1ccc(F)cc1)C12CC(NC(=O)c3ccc(F)c(Cl)c3)(C1)C2 | 56 mL/min/kg | 295 mL/min/kg | –
4 | C[C@H](C(=O)Nc1ccc(F)cc1)C12CC(NC(=O)c3cccc(Cl)n3)(C1)C2 | 82 mL/min/kg | 644 mL/min/kg | –
5 | C[C@H](C(=O)Nc1ccc(F)cc1)C12CC(NC(=O)c3cc(F)cc(Cl)c3)(C1)C2 | 56 mL/min/kg | 441 mL/min/kg | –
6 | C[C@H](C(=O)Nc1ccc(F)cc1)C12CC(Nc3ncnc4ccc(F)cc34)(C1)C2 | 723 mL/min/kg | 549 mL/min/kg | –
7 | CC(C)OC(=O)NC12CC([C@H](C)C(=O)Nc3ccc(F)cc3)(C1)C2 | 369 mL/min/kg | 2925 mL/min/kg | –
8 | C[C@H](C(=O)Nc1ccc(Cl)cc1)C12CC(NC(=O)c3cccc(Cl)c3)(C1)C2 | 47 mL/min/kg | 150 mL/min/kg | –
9 | CC(C)(C(=O)Nc1ccc(F)cc1)C12CC(NC(=O)c3cccc(Cl)c3)(C1)C2 | 51 mL/min/kg | 197 mL/min/kg | –
10 | C[C@H](C(=O)Nc1ccc(Cl)nc1)C12CC(NC(=O)c3cccc(Cl)c3)(C1)C2 | 34 mL/min/kg | 133 mL/min/kg | –
11 | C[C@H](C(=O)Nc1ccc(F)cc1)C12CC(NC(=O)c3cccc(Cl)c3F)(C1)C2 | 591 mL/min/kg | 765 mL/min/kg | –
12 | C[C@H](C(=O)Nc1ccc(F)cc1)C12CC(NC(=O)c3ccc(F)c(F)c3)(C1)C2 | 52 mL/min/kg | 195 mL/min/kg | clearance [4]: 2 mL/min/kg; clearance [5]: 1.1 mL/min/kg; IC50 [6]: > 10 µM; CL free [3]: 37 mL/min/kg; EC50 [7]: > 30 µM; Papp [8]: 29 ×10⁻⁶ cm/s; CL free [9]: 121 mL/min/kg; half-life [10]: 36 h; IC50 (CYP450): > 50 µM; half-life [11]: 11 h; efflux ratio at 3 h [12]: 1.3; bioavailability [13]: 83%; IC90 [14]: 0.912 µM; CL free [15]: 22 mL/min/kg; bioavailability [16]: 79%; IC50 shift (CYP3A4): 1
13 | C[C@H](C(=O)Nc1ccc(F)cc1)C12CC(NC(=O)c3cccc(Cl)c3)(C1)C2 | 48 mL/min/kg | 247 to 248 mL/min/kg | clearance [4]: 5 mL/min/kg; IC50 [6]: > 10 µM; CL free [3]: 194 mL/min/kg; Papp [8]: 32 ×10⁻⁶ cm/s; half-life [11]: 3.7 h; bioavailability [13]: 110%
14 | C[C@H](C(=O)Nc1ccc(F)cc1)C12CC(Nc3ncnc4ccccc34)(C1)C2 | 1544 mL/min/kg | 1494 mL/min/kg | –
